target: T1, hFXR (Homo sapiens, UniProt Q96RI1); assay: In Vitro FXR Assay (TK): TK-ECRE-luc reporter in transfected CV-1 cells; type: cell-based; conditions: 18 hrs, luminescence, maximum efficacy of <25% of the Fexarmine control classified as '+'
T1 construct: expressed in transfected cells; host or cells: CV-1 cells
T1 sequence (Q96RI1 1-486): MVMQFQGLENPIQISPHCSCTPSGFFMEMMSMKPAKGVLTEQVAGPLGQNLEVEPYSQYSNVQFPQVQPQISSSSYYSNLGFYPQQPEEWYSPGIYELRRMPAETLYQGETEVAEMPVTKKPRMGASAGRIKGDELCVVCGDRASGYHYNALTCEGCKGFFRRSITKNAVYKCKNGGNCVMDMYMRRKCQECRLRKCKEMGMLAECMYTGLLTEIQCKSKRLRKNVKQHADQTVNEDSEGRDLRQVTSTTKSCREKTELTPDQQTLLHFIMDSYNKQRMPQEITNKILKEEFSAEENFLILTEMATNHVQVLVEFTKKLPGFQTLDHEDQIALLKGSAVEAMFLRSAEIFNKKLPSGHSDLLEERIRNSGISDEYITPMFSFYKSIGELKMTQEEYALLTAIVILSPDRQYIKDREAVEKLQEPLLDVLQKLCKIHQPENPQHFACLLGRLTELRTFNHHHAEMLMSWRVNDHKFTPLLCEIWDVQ
T1 sequence (P19793 1-462 partner): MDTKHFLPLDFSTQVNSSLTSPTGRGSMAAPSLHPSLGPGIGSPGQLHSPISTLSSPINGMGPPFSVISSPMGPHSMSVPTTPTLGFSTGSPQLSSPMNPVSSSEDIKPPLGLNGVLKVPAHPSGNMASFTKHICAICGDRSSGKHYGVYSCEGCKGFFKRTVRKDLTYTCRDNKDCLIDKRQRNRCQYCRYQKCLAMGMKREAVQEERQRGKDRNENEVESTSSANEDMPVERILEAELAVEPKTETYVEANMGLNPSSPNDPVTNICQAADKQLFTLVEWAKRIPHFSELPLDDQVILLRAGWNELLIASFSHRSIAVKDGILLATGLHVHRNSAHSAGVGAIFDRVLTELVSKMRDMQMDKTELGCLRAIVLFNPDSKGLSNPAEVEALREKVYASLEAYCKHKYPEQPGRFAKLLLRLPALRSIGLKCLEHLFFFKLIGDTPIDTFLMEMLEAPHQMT
In short: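 Cells are seeded in charcoal double-stripped FBS medium, transfected overnight with FXR/RXR expression and ECRE-driven luciferase reporter plasmids, then treated with serially diluted compounds for 18 h. Lysates are measured for luciferase light output.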

EC50, ≤ 250 nM:
CCN1CCN(C(=O)O[C@H]2CC[C@H](C(=O)N(C[C@H]3CC[C@H](c4ccc(OC)c(C)n4)CC3)c3cc(-c4coc(C5CC5)n4)ccn3)CC2)CC1 [Compound 6.81, trans-4-((4-(2-Cyclopropyloxazol-4-yl)pyridine-2-yl)((trans-4-(5-methoxy-6-methylpyridin-2-yl)cyclohexyl)methyl)carbamoyl)cyclohexyl 4-ethylpiperazine-1-carboxylate]
COc1ccc([C@H]2CC[C@H](CN(c3cc(-c4coc(C5CC5)n4)ccn3)C(=O)[C@H]3CC[C@H](OC(=O)N4CCN(C(C)C)CC4)CC3)CC2)nc1C [Compound 6.82, trans-4-((4-(2-Cyclopropyloxazol-4-yl)pyridine-2-yl)((trans-4-(5-methoxy-6-methylpyridin-2-yl)cyclohexyl)methyl)carbamoyl)cyclohexyl 4-isopropylpiperazine-1-carboxylate]
COc1ccc([C@H]2CC[C@H](CN(c3cc(-c4coc(C5CC5)n4)ccn3)C(=O)[C@H]3CC[C@H](OC(=O)N4CCOC(C)(C)C4)CC3)CC2)nc1C [Compound 6.83, trans-4-((4-(2-Cyclopropyloxazol-4-yl)pyridin-2-yl)((trans-4-(5-methoxy-6-methylpyridin-2-yl)cyclohexyl)methyl)carbamoyl)cyclohexyl 2,2-dimethylmorpholine-4-carboxylate]
COc1ccc([C@H]2CC[C@H](CN(c3cc(-c4coc(C5CC5)n4)ccn3)C(=O)[C@H]3CC[C@H](OC(=O)N4CC(C5COC5)C4)CC3)CC2)nc1C [Compound 6.84, trans-4-((4-(2-Cyclopropyloxazol-4-yl)pyridin-2-yl)((trans-4-(5-methoxy-6-methylpyridin-2-yl)cyclohexyl)methyl)carbamoyl)cyclohexyl 3-(oxetan-3-yl) azetidine-1-carboxylate]
CCc1nc(-c2ccnc(N(C[C@H]3CC[C@H](c4ccc(OC)c(C)n4)CC3)C(=O)[C@H]3CC[C@H](OC(=O)NCCO)CC3)c2)co1 [Compound 6.85, trans-4-((4-(2-Ethyloxazol-4-yl)pyridin-2-yl)((trans-4-(5-methoxy-6-methylpyridin-2-yl)cyclohexyl)methyl)carbamoyl)cyclohexyl (2-hydroxyethyl)carbamate]
COc1ccc([C@H]2CC[C@H](CN(c3cc(-c4coc(C5CC5)n4)ccn3)C(=O)[C@H]3CC[C@H](OC(=O)N(C)CC(C)(C)O)CC3)CC2)nc1C [Compound 6.86, trans-4-((4-(2-Cyclopropyloxazol-4-yl)pyridin-2-yl)((trans-4-(5-methoxy-6-methylpyridin-2-yl)cyclohexyl)methyl)carbamoyl)cyclohexyl (2-hydroxy-2-methylpropyl)(methyl)carbamate]
COc1ccc([C@H]2CC[C@H](CN(c3cc(-c4coc(C5CC5)n4)ccn3)C(=O)[C@H]3CC[C@H](OC(=O)N(C)CCO)CC3)CC2)nc1C [Compound 6.87, trans-4-((4-(2-Cyclopropyloxazol-4-yl)pyridin-2-yl)((trans-4-(5-methoxy-6-methylpyridin-2-yl)cyclohexyl)methyl)carbamoyl)cyclohexyl (2-hydroxyethyl)(methyl)carbamate]
CCC(O)C(C)NC(=O)O[C@H]1CC[C@H](C(=O)N(C[C@H]2CC[C@H](c3ccc(OC)c(C)n3)CC2)c2cc(-c3coc(C4CC4)n3)ccn2)CC1 (stereo partly drawn) [Compound 6.88, trans-4-((4-(2-Cyclopropyloxazol-4-yl)pyridin-2-yl)((trans-4-(5-methoxy-6-methylpyridin-2-yl)cyclohexyl)methyl)carbamoyl)cyclohexyl (3-hydroxypentan-2-yl)carbamate]
